How the values were obtained:
[1] = target: T1, Oxysterols receptor LXR-beta (Homo sapiens, UniProt P55055); type: functional
T1 sequence (P55055 whole entry): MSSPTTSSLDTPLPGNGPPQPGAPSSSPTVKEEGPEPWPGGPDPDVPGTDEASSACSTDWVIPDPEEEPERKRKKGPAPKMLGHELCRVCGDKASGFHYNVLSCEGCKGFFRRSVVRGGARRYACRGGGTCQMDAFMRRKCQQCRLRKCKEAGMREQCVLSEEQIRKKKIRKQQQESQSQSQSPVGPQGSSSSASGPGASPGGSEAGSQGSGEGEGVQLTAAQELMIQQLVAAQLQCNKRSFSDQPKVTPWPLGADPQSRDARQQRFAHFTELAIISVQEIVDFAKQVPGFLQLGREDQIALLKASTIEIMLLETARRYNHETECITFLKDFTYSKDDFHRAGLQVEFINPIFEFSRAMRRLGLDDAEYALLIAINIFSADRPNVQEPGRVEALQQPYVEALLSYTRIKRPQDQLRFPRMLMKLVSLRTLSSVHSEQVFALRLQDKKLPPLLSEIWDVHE

[2] = target: T1, Oxysterols receptor LXR-beta; type: functional; remark: listed apart in the source
[3] = target: T2, Oxysterols receptor LXR-alpha (Homo sapiens, UniProt Q13133); type: functional
T2 sequence (Q13133 whole entry): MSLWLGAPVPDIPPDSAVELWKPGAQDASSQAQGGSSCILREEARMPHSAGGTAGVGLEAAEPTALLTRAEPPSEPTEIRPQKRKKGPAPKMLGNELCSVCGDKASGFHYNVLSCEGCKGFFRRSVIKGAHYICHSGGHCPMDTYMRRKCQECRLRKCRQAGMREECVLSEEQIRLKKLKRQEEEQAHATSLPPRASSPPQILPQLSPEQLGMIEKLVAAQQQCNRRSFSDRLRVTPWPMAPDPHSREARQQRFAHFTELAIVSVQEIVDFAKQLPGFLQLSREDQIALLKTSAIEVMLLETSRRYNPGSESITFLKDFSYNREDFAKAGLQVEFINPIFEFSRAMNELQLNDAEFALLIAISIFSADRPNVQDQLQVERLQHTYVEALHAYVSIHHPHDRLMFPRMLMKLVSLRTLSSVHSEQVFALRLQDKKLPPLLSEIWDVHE

[4] = target: T3, Retinoic acid receptor alpha (Homo sapiens, UniProt P10276); type: functional, cell-based
T3 sequence (P10276 whole entry): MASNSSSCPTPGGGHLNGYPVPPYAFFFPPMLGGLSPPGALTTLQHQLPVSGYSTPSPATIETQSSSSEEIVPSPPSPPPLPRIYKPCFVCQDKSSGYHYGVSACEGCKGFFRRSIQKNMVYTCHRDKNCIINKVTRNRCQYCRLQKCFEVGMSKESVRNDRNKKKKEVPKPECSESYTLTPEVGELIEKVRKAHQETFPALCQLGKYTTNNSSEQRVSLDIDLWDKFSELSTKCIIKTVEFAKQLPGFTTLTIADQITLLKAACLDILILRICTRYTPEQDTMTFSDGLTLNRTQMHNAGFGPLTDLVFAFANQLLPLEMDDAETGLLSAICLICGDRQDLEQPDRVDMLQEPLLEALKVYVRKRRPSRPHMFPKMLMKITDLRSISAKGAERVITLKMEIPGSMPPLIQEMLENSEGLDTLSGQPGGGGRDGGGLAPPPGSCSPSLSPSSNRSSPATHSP

[5] = target: T4, 5-hydroxytryptamine receptor 1A (Homo sapiens, UniProt P08908)
T4 sequence (P08908 whole entry): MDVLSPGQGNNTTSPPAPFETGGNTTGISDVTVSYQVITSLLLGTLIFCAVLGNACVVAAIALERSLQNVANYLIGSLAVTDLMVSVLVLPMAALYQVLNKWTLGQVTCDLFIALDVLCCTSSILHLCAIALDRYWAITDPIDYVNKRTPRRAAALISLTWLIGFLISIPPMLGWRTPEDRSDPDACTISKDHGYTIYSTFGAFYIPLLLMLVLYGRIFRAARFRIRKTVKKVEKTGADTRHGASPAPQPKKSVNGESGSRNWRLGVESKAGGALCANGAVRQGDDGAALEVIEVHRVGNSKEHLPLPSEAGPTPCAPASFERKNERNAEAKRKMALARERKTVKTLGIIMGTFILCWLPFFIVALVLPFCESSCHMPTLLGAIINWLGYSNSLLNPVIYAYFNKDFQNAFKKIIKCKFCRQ

[6] = target: T5, Alpha-2A adrenergic receptor (Homo sapiens, UniProt P08913)
T5 sequence (P08913 whole entry): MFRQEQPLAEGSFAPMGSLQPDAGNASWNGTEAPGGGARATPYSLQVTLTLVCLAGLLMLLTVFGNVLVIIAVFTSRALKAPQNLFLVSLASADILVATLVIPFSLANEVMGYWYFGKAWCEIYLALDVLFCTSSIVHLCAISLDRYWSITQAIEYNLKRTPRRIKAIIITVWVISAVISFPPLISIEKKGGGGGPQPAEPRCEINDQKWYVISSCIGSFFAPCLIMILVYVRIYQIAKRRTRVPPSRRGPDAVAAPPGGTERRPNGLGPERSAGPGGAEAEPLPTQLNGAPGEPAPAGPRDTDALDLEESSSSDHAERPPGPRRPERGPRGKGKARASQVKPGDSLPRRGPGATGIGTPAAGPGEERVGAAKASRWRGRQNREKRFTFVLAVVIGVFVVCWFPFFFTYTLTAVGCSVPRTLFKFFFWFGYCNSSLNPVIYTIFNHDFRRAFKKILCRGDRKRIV

[7] = target: D(1A) dopamine receptor (Homo sapiens, UniProt P21728)
[8] = target: T6, Alpha-1A adrenergic receptor (Homo sapiens, UniProt P35348)
T6 sequence (P35348 whole entry): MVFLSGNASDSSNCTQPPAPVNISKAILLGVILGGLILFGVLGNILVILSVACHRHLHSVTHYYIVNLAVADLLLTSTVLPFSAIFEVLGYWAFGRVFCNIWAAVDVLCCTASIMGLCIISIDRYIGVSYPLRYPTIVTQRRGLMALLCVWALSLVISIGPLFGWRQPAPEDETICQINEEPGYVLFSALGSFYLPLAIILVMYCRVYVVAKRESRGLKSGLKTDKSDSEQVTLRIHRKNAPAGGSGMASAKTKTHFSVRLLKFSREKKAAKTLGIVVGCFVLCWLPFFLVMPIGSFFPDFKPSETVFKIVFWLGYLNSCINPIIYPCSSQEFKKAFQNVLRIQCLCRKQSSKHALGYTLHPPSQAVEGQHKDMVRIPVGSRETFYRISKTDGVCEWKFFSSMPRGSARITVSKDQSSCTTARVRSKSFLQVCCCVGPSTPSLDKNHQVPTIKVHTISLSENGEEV
Further: assay procedure not described here.

D(1A) dopamine receptor, sequence (P21728 whole entry): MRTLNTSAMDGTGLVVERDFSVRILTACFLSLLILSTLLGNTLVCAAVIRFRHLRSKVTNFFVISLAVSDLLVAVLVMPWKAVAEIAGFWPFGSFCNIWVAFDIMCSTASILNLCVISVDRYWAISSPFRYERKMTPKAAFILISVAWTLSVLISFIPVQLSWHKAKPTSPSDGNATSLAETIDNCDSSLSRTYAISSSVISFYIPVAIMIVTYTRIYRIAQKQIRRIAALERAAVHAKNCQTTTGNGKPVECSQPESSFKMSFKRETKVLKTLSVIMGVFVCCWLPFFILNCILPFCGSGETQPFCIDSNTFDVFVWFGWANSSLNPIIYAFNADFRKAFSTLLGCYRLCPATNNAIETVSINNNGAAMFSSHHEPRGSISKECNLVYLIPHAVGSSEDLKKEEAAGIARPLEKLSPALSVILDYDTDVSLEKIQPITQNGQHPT

Row | Compound | AC50 [1] | AC50 [2] | AC50 [3] | AC50 [4] | AC50 [5] | AC50 [6] | AC50 [7] | AC50 [8]
1 | CN1C(C(=O)Nc2ccccn2)=C(O)c2sc(Cl)cc2S1(=O)=O [LORNOXICAM] | > 30 µM | > 30 µM | > 30 µM | > 30 µM |  |  |  | 
2 | Cc1cn([C@H]2C=C[C@@H](CO)O2)c(=O)[nH]c1=O [STAVUDINE] |  |  |  |  | > 30 µM | > 30 µM | > 30 µM | 
3 | CC[C@H]1OC(=O)[C@H](C)[C@@H](O[C@H]2C[C@@](C)(OC)[C@@H](O)[C@H](C)O2)[C@H](C)[C@@H](O[C@@H]2O[C@H](C)C[C@H](N(C)C)[C@H]2O)[C@](C)(O)C[C@@H](C)CN(C)[C@H](C)[C@@H](O)[C@]1(C)O [AZITHROMYCIN] |  |  |  |  |  |  |  | > 30 µM
4 | CCc1oc2ccccc2c1C(=O)c1cc(I)c(O)c(I)c1 [BENZIODARONE] |  |  |  |  |  |  |  | > 30 µM
5 | Cc1c(C(=O)NN2CCCCC2)nn(-c2ccc(Cl)cc2Cl)c1-c1ccc(Cl)cc1 [RIMONABANT] | > 30 µM | > 30 µM | > 30 µM | > 30 µM |  |  |  | 
6 | O=C(OCC(O)CO)c1ccccc1Nc1ccnc2cc(Cl)ccc12 (stereo unspecified) [GLAFENINE] |  |  |  |  | > 30 µM | > 30 µM | > 30 µM | 

Source: ChEMBL document CHEMBL5291721, “A preclinical secondary pharmacology resource illuminates target-adverse drug reaction associations of marketed drugs” (Nat Commun, 2023)
